Data reported in patent US20100272831A1, “PROCESS FOR MANUFACTURING NANOCOMPOSITE MATERIALS FOR MULTISECTORAL APPLICATIONS” (NANOBIOMATTERS, S.L., priority 2005, published 2010).

experiment: Interlayer (basal) spacing of kaolinite clay treated with expansive-type precursors/modifiers; type: physicochemical; settings: not given
From the text: The penetration of the precursors is accelerated by means of the use of temperature, a turbulent regime homogenizer, ultrasound, pressure or a combination thereof. They can be dried by evaporation in a stove, lyophilization, centrifugation processes and/or gravimetric processes in solution or turbo-drying processes or by atomization processes.
In this example the modification process consists of a first step in which the purified kaolinite and montmorillonite clay fining agents are pretreated with an ethanol/water 50/50 (v/v) mixture at 50° C. This process was carried out together with an ultrasonic stirring treatment process for 1 hour and with stirring with a homogenizer for 2 hours to favor the intercalation of the precursor in the clay. The solvent was then removed by means of lyophilization and/or evaporation. […]

Row | Compound | dMODIFIER
1 | FC(F)=C(F)F [Tetrafluoroethylene] | 0.98 nm
2 | CC(=O)[O-].[K+] [Potassium acetate] | 1.39 nm

same assay, conditions: kaolinite of Table 1; spacing of the clay with the named modifier

Row | Compound | dMODIFIER
3 | O=C(O)/C=C\C(=O)O [Maleic acid] | 1.20 nm
4 | O=C1CCCCCN1 [Caprolactam] | 1.18 nm
5 | O=C(O)c1ccccc1O [Salicylic acid] | 1.07 nm
6 | CC=O [Acetaldehyde] | 0.91 nm
7 | C=COC(C)=O [Vinyl acetate] | 1.21 nm
8 | C1CCCCC1 [Hexamethylene] | 1.02 nm
9 | C[S+](C)[O-] [Dimethyl sulfoxide (DMSO), Dimethyl sulfoxide] | 1.11 nm
10 | Manganese acetate | 1.41 nm
11 | NN [Anhydrous hydrazine] | 0.96 nm
12 | CC(O)C(=O)O (stereo not drawn) [Lactic acid] | 1.08 nm
13 | CNC=O [N-methyl formamide (NMF), N-methyl formamide] | 1.02 nm
14 | O=C1C=CC(=O)O1 [Maleic anhydride] | 1.20 nm
15 | CC(=O)O [Acetic acid] | 1.10 nm
16 | O=C(OC[C@H]1O[C@@H](OC(=O)c2cc(O)c(O)c(OC(=O)c3cc(O)c(O)c(O)c3)c2)[C@H](OC(=O)c2cc(O)c(O)c(OC(=O)c3cc(O)c(O)c(O)c3)c2)[C@@H](OC(=O)c2cc(O)c(O)c(OC(=O)c3cc(O)c(O)c(O)c3)c2)[C@@H]1OC(=O)c1cc(O)c(O)c(OC(=O)c2cc(O)c(O)c(O)c2)c1)c1cc(O)c(O)c(OC(=O)c2cc(O)c(O)c(O)c2)c1 [Tannic acid] | 1.09 nm
17 | CCCCCC(=O)O [Hexanoic acid] | 1.23 nm
18 | NN.O [Hydrated hydrazine] | 1.03 nm
19 | O [Water] | 0.78 nm
20 | CC(N)=O [Acetamide] | 1.09 nm
21 | O=C(O)CCCCC(=O)O [Adipic acid] | 1.03 nm
22 | C=CC(N)=O [Archylamide] | 1.14 nm
23 | CCCC(=O)O [Butyric acid] | 1.01 nm

experiment: Interlayer (basal) spacing of montmorillonite clay treated with expansive-type precursors/modifiers; type: physicochemical; settings: not given

Row | Compound | dMODIFIER
24 | OCCO [Ethylene glycol] | 0.95 nm

same assay, conditions: montmorillonite; spacing of the clay with the named modifier

Row | Compound | dMODIFIER
25 | OC[C@@H](O)[C@@H](O)[C@@H](O)CO [Adonitol] | 1.04 nm
26 | OCCOCCO [Diethylene glycol] | 1.04 nm
27 | O=C(O)CO [Glycolic acid] | 1.06 nm
28 | Calcium butyrate | 0.92 nm
29 | OC[C@@H](O)[C@@H](O)[C@H](O)[C@@H](O)CO [Sorbitol] | 1.19 nm
30 | OCC(O)CO [Glycerol] | 1.02 nm
31 | Sucrose acetoisobutyrate | 1.08 nm
32 | C=CN1CCCC1=O [Vinyl pyrrolidone] | 1.23 nm
33 | OCCCO [1,3-Propanediol] | 0.98 nm
34 | Vinyl versatate | 1.11 nm
35 | Manganese butyrate | 0.95 nm
36 | CC(O)CO (stereo not drawn) [1,2-Propanediol] | 1.09 nm
37 | OCCOCCOCCO [Triethylene glycol] | 1.08 nm
38 | OC[C@@H](O)[C@H]1OC[C@H](O)[C@H]1O [Sorbitan] | 1.09 nm
39 | CC(O)CO (stereo not drawn) [Propylene glycol] | 1.01 nm
